Legend:
Type in all cases: functional
Medicago sativa [1] = test: Post-emergence herbicidal activity against Medicago sativa (alfalfa) assessed as growth inhibition at 1500 ai g/ha after 20 days by green house test
Amaranthus retroflexus [2] = test: Post-emergence herbicidal activity against Amaranthus retroflexus assessed as growth inhibition at 1500 ai g/ha after 20 days by green house test
[3] = test system: Brassica rapa subsp. oleifera; test: Post-emergence herbicidal activity against Brassica rapa subsp. oleifera Si Yue Man assessed as growth inhibition at 1500 ai g/ha after 20 days by green house test
Digitaria sanguinalis [4] = test: Post-emergence herbicidal activity against Digitaria sanguinalis (hairy crabgrass) assessed as growth inhibition at 1500 ai g/ha after 20 days by green house test
Echinochloa crus-galli [5] = test: Post-emergence herbicidal activity against Echinochloa crus-galli (barnyard grass) assessed as growth inhibition at 1500 ai g/ha after 20 days by green house test
Medicago sativa [6] = test: Pre-emergence herbicidal activity against Medicago sativa (alfalfa) assessed as growth inhibition at 1500 ai g/ha after 20 days by green house test
Amaranthus retroflexus [7] = test: Pre-emergence herbicidal activity against Amaranthus retroflexus assessed as growth inhibition at 1500 ai g/ha after 20 days by green house test
[8] = test system: Brassica rapa subsp. oleifera; test: Pre-emergence herbicidal activity against Brassica rapa subsp. oleifera Si Yue Man assessed as growth inhibition at 1500 ai g/ha after 20 days by green house test
Digitaria sanguinalis [9] = test: Pre-emergence herbicidal activity against Digitaria sanguinalis (hairy crabgrass) assessed as growth inhibition at 1500 ai g/ha after 20 days by green house test
Echinochloa crus-galli [10] = test: Pre-emergence herbicidal activity against Echinochloa crus-galli (barnyard grass) assessed as growth inhibition at 1500 ai g/ha after 20 days by green house test

| Compound | growth inhibition (GI) (Medicago sativa [1]) | growth inhibition (GI) (Amaranthus retroflexus [2]) | growth inhibition (GI) [3] | growth inhibition (GI) (Digitaria sanguinalis [4]) | growth inhibition (GI) (Echinochloa crus-galli [5]) | growth inhibition (GI) (Medicago sativa [6]) | growth inhibition (GI) (Amaranthus retroflexus [7]) | growth inhibition (GI) [8] | growth inhibition (GI) (Digitaria sanguinalis [9]) | growth inhibition (GI) (Echinochloa crus-galli [10]) |
| --- | --- | --- | --- | --- | --- | --- | --- | --- | --- | --- |
| COP(=O)(OC)C(OC(=O)COc1cc(C)ccc1Cl)c1cccc([N+](=O)[O-])c1 (stereo not given) | <=50% | <=50% | <=50% | <=50% | <=50% | <=50% | <=50% | <=50% | <=50% | <=50% |
| COP(=O)(OC)C(C)OC(=O)COc1cccc(C)c1C (stereo not given) | 50% | 50% | 75% | <=50% | 50% | 75% | 75% | 90% | <=50% | 75% |
| COP(=O)(OC)C(OC(=O)COc1ccccc1)c1ccccc1 (stereo not given) | <=50% | <=50% | <=50% | <=50% | <=50% | <=50% | <=50% | <=50% | <=50% | <=50% |
| COP(=O)(OC)C(C)OC(=O)COc1ccc(Cl)c(C)c1 (stereo not given) | 50% | 50% | 50% | <=50% | <=50% | 75% | 75% | 90% | 75% | 75% |
| COP(=O)(OC)C(OC(=O)COc1c(Cl)cccc1Cl)c1cccc([N+](=O)[O-])c1 (stereo not given) | <=50% | <=50% | <=50% | <=50% | <=50% | <=50% | <=50% | <=50% | <=50% | <=50% |
| COP(=O)(OC)C(C)OC(=O)COc1cccc(Cl)c1Cl (stereo not given) | <=50% | 50% | <=50% | <=50% | <=50% | <=50% | <=50% | <=50% | <=50% | <=50% |
| COP(=O)(OC)C(OC(=O)COc1ccc(Cl)cc1Cl)C(Cl)(Cl)Cl (stereo not given) | 50% | 90% | 90% | 50% | 50% | 90% | 90% | 90% | 90% | 90% |
| COP(=O)(OC)C(C)OC(=O)COc1ccccc1F (stereo not given) | <=50% | <=50% | <=50% | <=50% | <=50% | <=50% | <=50% | <=50% | <=50% | <=50% |
| COP(=O)(OC)C(OC(=O)COc1ccc(F)cc1Cl)c1ccccc1O (stereo not given) | 90% | 90% | 90% | <=50% | 50% | 90% | 90% | 90% | 90% | 50% |
| COP(=O)(OC)C(OC(=O)COc1ccc(C(F)(F)F)cc1)c1cccc([N+](=O)[O-])c1 (stereo not given) | <=50% | 50% | <=50% | <=50% | <=50% | <=50% | <=50% | <=50% | <=50% | <=50% |
| COP(=O)(OC)C(OC(=O)COc1ccc(F)c(Cl)c1)c1cccc([N+](=O)[O-])c1 (stereo not given) | 50% | 75% | 50% | 75% | 50% | 50% | 50% | <=50% | <=50% | 50% |
| COP(=O)(OC)C(C)OC(=O)COc1ccc(Cl)cc1[N+](=O)[O-] (stereo not given) | <=50% | <=50% | <=50% | <=50% | <=50% | <=50% | <=50% | <=50% | <=50% | <=50% |
| COP(=O)(OC)C(OC(=O)COc1ccc(C)cc1)c1ccccc1 (stereo not given) | 50% | 50% | 50% | <=50% | <=50% | 75% | 75% | 75% | <=50% | <=50% |
| COP(=O)(OC)C(C)OC(=O)COc1ccc(F)cc1Cl (stereo not given) | 90% | 90% | 90% | 75% | 75% | 90% | 90% | 90% | 90% | 90% |
| COP(=O)(OC)C(OC(=O)COc1ccccc1[N+](=O)[O-])c1ccccc1 (stereo not given) | <=50% | <=50% | <=50% | <=50% | <=50% | <=50% | <=50% | <=50% | <=50% | <=50% |
| COP(=O)(OC)C(C)OC(=O)COc1cccc(F)c1 (stereo not given) | <=50% | <=50% | <=50% | <=50% | <=50% | <=50% | <=50% | <=50% | <=50% | <=50% |
